The source of these data is patent US20220411362A1, “DITERPENOID COMPOUNDS THAT ACT ON PROTEIN KINASE C (PKC)” (K-Gen, Inc., priority 2019, published 2022).

The target in one test is T1, C1b domain of human PKCθ (Homo sapiens, UniProt Q04759).
T1 construct: Genes encoding C1b domains of human PKCα, δ, ε, θ, and PKD1 (PKCμ) were synthesized; made in house; host or cells: E. coli BL21(DE3)
T1 sequence (Q04759 231-281 limits assumed): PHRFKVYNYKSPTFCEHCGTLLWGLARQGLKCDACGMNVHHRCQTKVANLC
In words: Competitive 3H-PDBu binding to C1b domain of PKCθ. The procedure:
(§1) Compounds described in this disclosure were tested for binding affinity to C1b domain of PKC isoforms. Compound binding affinity to C1b domain of PKC isoforms was derived from competitive binding assay using radioactive tracer ^3H-PDBu and recombinant GST-C1b or full-length of human PKC proteins based on modified procedures from Methods in Molecular Biology, vol.
(§2) Genes encoding C1b domains of human PKCα, δ, ε, θ, and PKD1 (PKCμ) were synthesized and inserted into pGEX-2TK or pGEX-4T1 vectors for expression and production of GST-C1b proteins in E. coli BL21(DE3) via IPTG induction. The target proteins were purified by glutathione sepharose 4B and followed by ion exchange chromatography if needed to achieve purity >70%. Aliquots of the purified proteins were stored at −80 degree for binding assay (storage buffer: 20 mM Tris pH 8.0, 200 mM NaCl, 10% glycerol, 1 mM DTT).
(§3) The plate was incubated at 37° C. on a shaker at 300 rpm for 10 minutes and then put on ice for 20 minutes. […] The bottom of the filter plate was sealed and 50 μL of MicroScint-20 (PerkinElmer) cocktail was added to each well. ^3H-PDBu trapped in each well was counted using PerkinElmer MicroBeta2 Reader. Data were analyzed using GraphPad Prism5 with the model “log(inhibitor) vs. response-variable slope” to fit the IC50, and then IC50 was transformed to Ki using Cheng-Prusoff equation: Ki=IC50/(1+added radio ligand/Kd). Kd is the binding affinity of each protein preparation to ^3H-PDBu, determined experimentally.

In test [1] the target is T2, C1b domain of human PKD1 (PKCμ) (Homo sapiens, UniProt Q15139).
T2 construct: Genes encoding C1b domains of human PKCα, δ, ε, θ, and PKD1 (PKCμ) were synthesized; made in house; host or cells: E. coli BL21(DE3)
T2 sequence (Q15139 270-320 limits assumed): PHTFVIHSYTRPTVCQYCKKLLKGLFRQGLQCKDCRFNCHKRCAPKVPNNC
The test is described as follows: biochemical. Format: binding. The protocol:
as §1, §2, §3

For the next test, the target named is T3, C1b domain of human PKCδ (Homo sapiens, UniProt Q05655).
T3 construct: Genes encoding C1b domains of human PKCα, δ, ε, θ, and PKD1 (PKCμ) were synthesized; made in house; host or cells: E. coli BL21(DE3)
T3 sequence (Q05655 230-280 limits assumed): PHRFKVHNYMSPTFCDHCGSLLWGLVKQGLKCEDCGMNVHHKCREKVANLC
In words: Competitive 3H-PDBu binding to C1b domain of PKCδ. Conditions: Ki PKCδ, 3H-PDBu competition. The procedure:
as §1, §2, §3

For test [2], the system named is A549 non-small cell lung cancer cell line. The test is described as follows: Proliferation of A549 (CellTiter Glo). Format: cell-based. The note with it: Homo sapiens, A549, 96 h, read-out: IC50 μM (A549 Cell Line). The procedure:
The diterpenoid compounds were tested in A549, a non-small cell lung cancer cell line harboring a K-Ras activating mutation. Briefly, A549 cells at a density of 1,000 cells/well were seeded in 96-well plates and incubated at 37° C. for 24 hours. A series of different concentrations of compound stocks (500×) were prepared by 3-fold serial dilution in DMSO. These compounds were further diluted in culture media and then added to cells so that the final DMSO concentration was not exceeding 0.25%. After 96 hours of incubation, 50 μL of CellTiter Glo reagent (Promega) was added to each well and luminescence was measured after 10 minutes using EnVision (PerkinElmer). Luminescence from cells treated with DMSO alone was set as Max and % of inhibition was calculated as follows: Inhibition %=(Max−Sample value)/Max×100. Data was analyzed using XL-fit software (ID Business Solutions Ltd.) and IC50, relative IC50, and % of top inhibition was calculated. Some of the compounds in this disclosure were very potent in blocking proliferation of A549 lung cancer cells at low nM range. In addition, potency of inhibiting A549 proliferation correlated well with its binding affinity to PKCs for this series of compounds. In other words, higher affinity binders had stronger inhibitory effects on A549 proliferation. This further support the notion that activation, rather than inhibition, of certain PKC isoforms is required to block proliferation of cancer cells, some of which may harbor K-Ras mutations. This is in sharp contrast to previous literature and common belief that inhibition of PKC is necessary to block cancer cell growth (Kang, 2014, New Journal of Science, 2014:1-36). Data presented here is in agreement with recent findings that many loss-of-function but not gain-of-function mutations of PKC isoforms have been identified in many human cancers (Antal et al., 2015, Cell, 160:489-502).

A further test addresses T4, C1b domain of human PKCε (Homo sapiens, UniProt Q02156).
T4 construct: Genes encoding C1b domains of human PKCα, δ, ε, θ, and PKD1 (PKCμ) were synthesized; made in house; host or cells: E. coli BL21(DE3)
In words: Competitive 3H-PDBu binding to C1b domain of PKCε. The procedure:
as §1, §2, §3

For another test, the target named is T5, C1b domain of human PKCα (Homo sapiens, UniProt P17252).
T5 construct: Genes encoding C1b domains of human PKCα, δ, ε, θ, and PKD1 (PKCμ) were synthesized; made in house; host or cells: E. coli BL21(DE3)
In words: biochemical. The note with it: Ki PKCα, 3H-PDBu competition. Format: binding. The protocol: as §1, §2
The plate was incubated at 37° C. on a shaker at 300 rpm for 10 minutes and then put on ice for 20 minutes. […] The bottom of the filter plate was sealed and 50 μL of MicroScint-20 (PerkinElmer) cocktail was added to each well. ^3H-PDBu trapped in each well was counted using PerkinElmer MicroBeta2 Reader. […] Kd is the binding affinity of each protein preparation to ^3H-PDBu, determined experimentally.

Where only a bound is given, the exact number is not on record here.

T4 sequence (Q02156 242-292 limits assumed): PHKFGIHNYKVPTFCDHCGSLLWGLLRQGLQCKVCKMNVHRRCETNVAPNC

As to `CC1=C[C@H]2[C@@]3(O)[C@H](C)C[C@]4(OC(=O)[C@H](N)CCCCCCCCc5ccccc5)[C@H]([C@@H]3C=C(CO)C[C@]2(O)C1=O)C4(C)C` [Compound K101-C136101], the Ki lay in the range of 0.001 to 0.03 µM on C1b domain of human PKCθ; 0.005 to 0.01 µM in test [1]; 0.001 to 0.03 µM on C1b domain of human PKCδ; 0.001 to 0.03 µM at C1b domain of human PKCε; 0.4 to 0.8 µM on C1b domain of human PKCα. The IC50 in test [2] fell in the range of 0.01 to 0.03 µM.
On to `CC1=C[C@H]2[C@@]3(O)[C@H](C)C[C@]4(OC(=O)[C@@H](N)CCCCCCCCc5ccccc5)[C@H]([C@@H]3C=C(CO)C[C@]2(O)C1=O)C4(C)C` [Compound K101-C136102], for which the Ki is under 0.005 µM on C1b domain of human PKCθ; under 0.005 µM in test [1]; 0.001 to 0.03 µM on C1b domain of human PKCδ; 0.005 to 0.01 µM at C1b domain of human PKCε; 0.03 to 0.06 µM at C1b domain of human PKCα. Further, the IC50 in test [2] lay in the range of 0.001 to 0.01 µM.
For `CC1=C[C@H]2[C@@]3(O)[C@H](C)C[C@]4(OC(=O)/C=C/c5ccc(C(F)(F)F)cc5)[C@H]([C@@H]3C=C(CO)C[C@]2(O)C1=O)C4(C)C` [Compound K101-C1313], the Ki is 0.001 to 0.03 µM at C1b domain of human PKCθ; under 0.005 µM in test [1]; 0.001 to 0.03 µM at C1b domain of human PKCδ; 0.001 to 0.03 µM at C1b domain of human PKCε; 0.2 to 0.4 µM on C1b domain of human PKCα. Besides, the IC50 in test [2] was in the range of 0.06 to 0.1 µM.
Regarding `CC1=C[C@H]2[C@@]3(O)[C@H](C)C[C@]4(OC(=O)[C@H](N)CCCCCCc5ccc(C(F)F)cc5)[C@H]([C@@H]3C=C(CO)C[C@]2(O)C1=O)C4(C)C` [Compound K101-C137001], the Ki is 0.03 to 0.06 µM on C1b domain of human PKCθ; 0.001 to 0.03 µM in test [1]; 0.001 to 0.03 µM on C1b domain of human PKCδ; 0.03 to 0.06 µM on C1b domain of human PKCε; 0.8 to 1 µM on C1b domain of human PKCα. The IC50 in test [2] lay in the range of 0.1 to 0.2 µM.
For the compound `CC1=C[C@H]2[C@@]3(O)[C@H](C)C[C@]4(OC(=O)C5CC6(CNC6)C5)[C@H]([C@@H]3C=C(CO)C[C@]2(O)C1=O)C4(C)C` [Compound K101-C1305], the Ki at C1b domain of human PKCθ is 0.2 to 0.4 µM; in test [1], 0.1 to 0.2 µM; at C1b domain of human PKCδ it was 0.4 to 0.8 µM; at C1b domain of human PKCε, 1 to 2 µM; on C1b domain of human PKCα, over 8 µM. In test [2], the IC50 was over 30 µM.
As to `CC1=C[C@H]2[C@@]3(O)[C@H](C)C[C@]4(OC(=O)CC5CC6(CNC6)C5)[C@H]([C@@H]3C=C(CO)C[C@]2(O)C1=O)C4(C)C` [Compound K101-C1306], the inhibition constant Ki lay within 0.1 to 0.2 µM at C1b domain of human PKCθ; 0.001 to 0.03 µM in test [1]; 0.1 to 0.2 µM at C1b domain of human PKCδ; 0.2 to 0.4 µM at C1b domain of human PKCε; 1 to 2 µM at C1b domain of human PKCα. The IC50 in test [2] is over 30 µM.
